According to PubChem BioAssay AID2060501 (Molecular Pharmacology Branch, DTP, NCI, 2025):
Each block holds one compound with its values, some of them ahead of it.

System: 282377-053-R-J1-PDC complex spheroids, viability
Assay: Anticancer human tumor 282377-053-R-J1-PDC patient-derived colon adenocarcinoma cell line growth inhibition [GQUAD]
Settings: for IC50: curve of first compound; for viability, T/C: stronger effect = lower value
Summary of the method: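 Tumor cells were grown as complex spheroids with HUVEC endothelial cells and mesenchymal stem cells as stroma. G-quadruplex stabilizers were combined with targeted agents over half-log dilutions from near the clinical Cmax, or from 10 microM.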

[1] = second compound 0.0316 µM, first compound 0.0316 µM
[2] = second compound 0.0316 µM, first compound 0.1 µM
[3] = second compound 0.0316 µM, first compound 0.316 µM
[4] = second compound 0.0316 µM, first compound 1 µM
[5] = second compound 0.0316 µM, first compound 3.16 µM
[6] = second compound 0.0316 µM, first compound 10 µM
[7] = second compound 0.1 µM, first compound 0.0316 µM
[8] = second compound 0.1 µM, first compound 0.1 µM
[9] = second compound 0.1 µM, first compound 0.316 µM
[10] = second compound 0.1 µM, first compound 1 µM
[11] = second compound 0.1 µM, first compound 3.16 µM
[12] = second compound 0.1 µM, first compound 10 µM
[13] = second compound 0.316 µM, first compound 0.0316 µM
[14] = second compound 0.316 µM, first compound 0.1 µM
[15] = second compound 0.316 µM, first compound 0.316 µM
[16] = second compound 0.316 µM, first compound 1 µM
[17] = second compound 0.316 µM, first compound 3.16 µM
[18] = second compound 0.316 µM, first compound 10 µM
[19] = second compound 1 µM, first compound 0.0316 µM
[20] = second compound 1 µM, first compound 0.1 µM
[21] = second compound 1 µM, first compound 0.316 µM
[22] = second compound 1 µM, first compound 1 µM
[23] = second compound 1 µM, first compound 3.16 µM
[24] = second compound 1 µM, first compound 10 µM
[25] = second compound 3.16 µM, first compound 0.0316 µM
[26] = second compound 3.16 µM, first compound 0.1 µM
[27] = second compound 3.16 µM, first compound 0.316 µM
[28] = second compound 3.16 µM, first compound 1 µM
[29] = second compound 3.16 µM, first compound 3.16 µM
[30] = second compound 3.16 µM, first compound 10 µM
[31] = second compound 10 µM, first compound 0.0316 µM
[32] = second compound 10 µM, first compound 0.1 µM
[33] = second compound 10 µM, first compound 0.316 µM
[34] = second compound 10 µM, first compound 1 µM
[35] = second compound 10 µM, first compound 3.16 µM
[36] = second compound 10 µM, first compound 10 µM
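Also: spheroids exposed to compounds for 7 days before readout.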
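For viability, T/C in this document: percent of vehicle DMSO control viability with 100% = untreated-like growth.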

IC50 (second compound 0.0316 µM): > 10000 nM
IC50 (second compound 0.1 µM): > 10000 nM
IC50 (second compound 0.316 µM): > 10000 nM
IC50 (second compound 1 µM): > 10000 nM
IC50 (second compound 3.16 µM): 4140 nM
IC50 (second compound 10 µM): < 31.6 nM
Compound: C#Cc1c(F)ccc2cc(O)cc(-c3ncc4c(N5CC6CCC(C5)N6)nc(OCC56CCCN5CC(F)C6)nc4c3F)c12 (stereo unspecified) + Cc1cnc(CNC(=O)c2c(=O)c3ccc(N4CCCN(C)CC4)nc3n3c2sc2ccccc23)cn1
viability, T/C [1]: 102%
viability, T/C [2]: 87.4%
viability, T/C [3]: 122%
viability, T/C [4]: 83.2%
viability, T/C [5]: 100%
viability, T/C [6]: 94.7%
viability, T/C [7]: 127%
viability, T/C [8]: 109%
viability, T/C [9]: 89.9%
viability, T/C [10]: 86%
viability, T/C [11]: 120%
viability, T/C [12]: 93.5%
viability, T/C [13]: 86.5%
viability, T/C [14]: 102%
viability, T/C [15]: 85.5%
viability, T/C [16]: 77.1%
viability, T/C [17]: 91.3%
viability, T/C [18]: 83.9%
viability, T/C [19]: 64.3%
viability, T/C [20]: 47.6%
viability, T/C [21]: 47.2%
viability, T/C [22]: 59.2%
viability, T/C [23]: 71.8%
viability, T/C [24]: 58.5%
viability, T/C [25]: 46.5%
viability, T/C [26]: 53%
viability, T/C [27]: 58.5%
viability, T/C [28]: 52.2%
viability, T/C [29]: 51.7%
viability, T/C [30]: 44.1%
viability, T/C [31]: 36.8%
viability, T/C [32]: 40.3%
viability, T/C [33]: 52.9%
viability, T/C [34]: 46%
viability, T/C [35]: 45.7%
viability, T/C [36]: 37.8%

IC50 (second compound 0.0316 µM): 2280 nM
IC50 (second compound 0.1 µM): 1480 nM
IC50 (second compound 0.316 µM): 393 nM
IC50 (second compound 1 µM): 34.9 nM
IC50 (second compound 3.16 µM): < 31.6 nM
IC50 (second compound 10 µM): < 31.6 nM
Compound: CCCS(=O)(=O)Nc1ccc(F)c(C(=O)c2c[nH]c3ncc(-c4ccc(Cl)cc4)cc23)c1F + Cc1cnc(CNC(=O)c2c(=O)c3ccc(N4CCCN(C)CC4)nc3n3c2sc2ccccc23)cn1
viability, T/C [1]: 89.5%
viability, T/C [2]: 53.1%
viability, T/C [3]: 72%
viability, T/C [4]: 52.7%
viability, T/C [5]: 54.9%
viability, T/C [6]: 11.8%
viability, T/C [7]: 77.5%
viability, T/C [8]: 63.9%
viability, T/C [9]: 56.6%
viability, T/C [10]: 55.7%
viability, T/C [11]: 45.4%
viability, T/C [12]: 11.6%
viability, T/C [13]: 64.5%
viability, T/C [14]: 57%
viability, T/C [15]: 46.9%
viability, T/C [16]: 39.5%
viability, T/C [17]: 41.4%
viability, T/C [18]: 11.3%
viability, T/C [19]: 52.6%
viability, T/C [20]: 44.6%
viability, T/C [21]: 38.3%
viability, T/C [22]: 30.3%
viability, T/C [23]: 34.4%
viability, T/C [24]: 9.31%
viability, T/C [25]: 39.5%
viability, T/C [26]: 29.4%
viability, T/C [27]: 28.8%
viability, T/C [28]: 25.9%
viability, T/C [29]: 30.4%
viability, T/C [30]: 0.11%
viability, T/C [31]: 31.3%
viability, T/C [32]: 31.3%
viability, T/C [33]: 22.9%
viability, T/C [34]: 23.3%
viability, T/C [35]: 7.59%
viability, T/C [36]: 0.33%

IC50 (second compound 0.0316 µM): > 316 nM
IC50 (second compound 0.1 µM): > 316 nM
IC50 (second compound 0.316 µM): > 316 nM
IC50 (second compound 1 µM): 115 nM
IC50 (second compound 3.16 µM): 10.8 nM
IC50 (second compound 10 µM): < 0.999 nM
Compound: CC[C@@]1(O)C(=O)OCc2c1cc1n(c2=O)Cc2cc3c(CN(C)C)c(O)ccc3nc2-1 + Cc1cnc(CNC(=O)c2c(=O)c3ccc(N4CCCN(C)CC4)nc3n3c2sc2ccccc23)cn1
viability, T/C (second compound 0.0316 µM, first compound 0.000999 µM): 136%
viability, T/C (second compound 0.0316 µM, first compound 0.00316 µM): 115%
viability, T/C (second compound 0.0316 µM, first compound 0.00999 µM): 125%
viability, T/C [1]: 107%
viability, T/C (second compound 0.0316 µM, first compound 0.0999 µM): 79.7%
viability, T/C [3]: 66.7%
viability, T/C (second compound 0.1 µM, first compound 0.000999 µM): 110%
viability, T/C (second compound 0.1 µM, first compound 0.00316 µM): 116%
viability, T/C (second compound 0.1 µM, first compound 0.00999 µM): 89.5%
viability, T/C [7]: 90.9%
viability, T/C (second compound 0.1 µM, first compound 0.0999 µM): 84.2%
viability, T/C [9]: 73.1%
viability, T/C (second compound 0.316 µM, first compound 0.000999 µM): 96.3%
viability, T/C (second compound 0.316 µM, first compound 0.00316 µM): 87.3%
viability, T/C (second compound 0.316 µM, first compound 0.00999 µM): 86.4%
viability, T/C [13]: 88.6%
viability, T/C (second compound 0.316 µM, first compound 0.0999 µM): 71%
viability, T/C [15]: 57.7%
viability, T/C (second compound 1 µM, first compound 0.000999 µM): 72.4%
viability, T/C (second compound 1 µM, first compound 0.00316 µM): 66.6%
viability, T/C (second compound 1 µM, first compound 0.00999 µM): 58.3%
viability, T/C [19]: 50.9%
viability, T/C (second compound 1 µM, first compound 0.0999 µM): 53.1%
viability, T/C [21]: 47.5%
viability, T/C (second compound 3.16 µM, first compound 0.000999 µM): 54.1%
viability, T/C (second compound 3.16 µM, first compound 0.00316 µM): 56.6%
viability, T/C (second compound 3.16 µM, first compound 0.00999 µM): 50.1%
viability, T/C [25]: 41.8%
viability, T/C (second compound 3.16 µM, first compound 0.0999 µM): 51.3%
viability, T/C [27]: 47.3%
viability, T/C (second compound 10 µM, first compound 0.000999 µM): 46.1%
viability, T/C (second compound 10 µM, first compound 0.00316 µM): 50.2%
viability, T/C (second compound 10 µM, first compound 0.00999 µM): 49.8%
viability, T/C [31]: 49.2%
viability, T/C (second compound 10 µM, first compound 0.0999 µM): 43.3%
viability, T/C [33]: 48.6%
